Measured values from US20220306986A1, “NON-INVASIVE METHODS FOR SELECTIVELY ENRICHING PLURIPOTENT CELLS” (MEMORIAL SLOAN-KETTERING CANCER CENTER, priority 2019, published 2022).

Tests used:
Format in all cases: cell-based, mouse
ESCs [1] = assay: Glutamine deprivation: growth curves, viability and colony formation; conditions: DM-αKG 4 mM
Description: For glutamine deprivation experiments in mouse ESCs, cells were initially plated in standard S/L medium as described above. The following day, cells were washed with PBS and then cultured in experimental medium containing a 1:1 mix of glutamine-free DMEM (Gibco 11960-051) and glutamine-free Neurobasal medium (Gibco 21103-049) including 10% dialyzed FBS, 2-mercaptoethanol, and LIF as described above and containing (“+Q”) or lacking (“−Q”) L-glutamine (2 mM) as indicated. When indicated, dimethyl-α-ketoglutarate (Sigma 349631) dissolved in DMSO was added to a final concentration of 4 mM. […]
ESCs were seeded at a density of 30,000-40,000 cells per well of a 12-well plate. The following day, three wells of each line were counted to determine the starting cell number. […] Cells were counted on the indicated days thereafter using a Beckman Multisizer 4e with a cell volume gate of 400-10,000 fL. […]
Evaluation of cell viability and Nanog-GFP expression. […] Cells were evaluated for GFP and DAPI on either a LSRFortessa or LSR-II machine and FACSDiva software ([…] Dickinson). […] Nanog-GFP expression was measured by GFP mean fluorescence intensity and quantified using FlowJo v9.0. […]

Nanog-GFP ESCs = assay: Nanog-GFP expression by flow cytometry after pulse treatment; conditions: 24 h pulse in glutamine-containing S/L medium, 24 h recovery; FIG. 7E-7F
Description: For transient glutamine withdrawal (“pulse”) experiments, cells were initially plated in standard S/L medium as described above. The following day, cells were washed with PBS and then changed to experimental medium containing a 1:1 mix of glutamine-free DMEM and glutamine-free Neurobasal medium including 10% dialyzed FBS, 2-mercaptoethanol, LIF, and containing (“Ctrl”) or lacking (“Pulse”) L-glutamine as indicated. 24 hours later, cells were washed with PBS and then returned to glutamine-replete medium (“Recover”). 24 hours later, cells were subjected to either image analysis, flow cytometry, or plated for colony formation assays as indicated. For glutamine pulse experiments in human ESCs, cells were initially plated at a density of 300,000 cells/well in a tissue-culture treated polystyrene 12-well plate coated with vitronectin (Thermo Fisher Scientific, A14700) in E8 medium (Thermo Fisher Scientific, A1517001) containing 10 uM ROCK inhibitor Y-27632 (Selleck Chemicals S1049). […] Cells were evaluated for GFP and DAPI on either a LSRFortessa or LSR-II machine and FACSDiva software ([…] Dickinson). […] Nanog-GFP expression was measured by GFP mean fluorescence intensity and quantified using FlowJo v9.0. […]

ESCs [2] = assay: Colony formation assay (alkaline phosphatase staining) after pulse treatment
Description: For transient glutamine withdrawal (“pulse”) experiments, cells were initially plated in standard S/L medium as described above. The following day, cells were washed with PBS and then changed to experimental medium containing a 1:1 mix of glutamine-free DMEM and glutamine-free Neurobasal medium including 10% dialyzed FBS, 2-mercaptoethanol, LIF, and containing (“Ctrl”) or lacking (“Pulse”) L-glutamine as indicated. 24 hours later, cells were washed with PBS and then returned to glutamine-replete medium (“Recover”). 24 hours later, cells were subjected to either image analysis, flow cytometry, or plated for colony formation assays as indicated. For glutamine pulse experiments in human ESCs, cells were initially plated at a density of 300,000 cells/well in a tissue-culture treated polystyrene 12-well plate coated with vitronectin (Thermo Fisher Scientific, A14700) in E8 medium (Thermo Fisher Scientific, A1517001) containing 10 uM ROCK inhibitor Y-27632 (Selleck Chemicals S1049). 24 hrs after plating, medium was changed to modified E8 medium containing: DMEM high glucose without glutamine (Thermo Fisher 11960044), 10.7 mg/L Transferrin (Sigma T0665), 64 mg/L L-Ascorbic Acid (Sigma A890), 14 ug/L Sodium Selenite (Sigma S5261), 543 mg/L Sodium Bicarbonate (Research Products International 144558), 19.4 mg/L insulin (Sigma 19278), 100 ug/L bFGF (EMD Millipore GF003AF), 2 ug/L TGFβ1 (Peprotech 10021), and 2 mM L-glutamine. After 24 hrs of culture in modified E8 medium, medium was changed to modified E8 medium containing 2 mM or 0 mM L-glutamine for 24 hrs. All cells were then changed to modified E8 medium containing 2 mM L-glutamine and cultured for 24 hrs before harvest for analysis. […] For ESC colony formation assays, colonies were scored manually in a blinded fashion. For reprogramming experiments, alkaline-phosphatase colonies were scored automatically using ImageJ (NIH). Briefly, images of each well were binarized using the Default function and particles greater than 8 pixels with a circularity of 0.7-1.0 were counted.

COC(=O)CCC(=O)C(=O)OC [cell-permeable αKG, dimethyl-α-ketoglutarate]
survival and proliferation in the absence of glutamine (population doublings) (ESCs [1]; 48 h glutamine-free medium, FIG. 2G, 2H): capable of rescuing survival and proliferation in the absence of glutamine | proliferation, viability and self-renewal of ESCs under glutamine withdrawal (ESCs [1]; S/L culture, FIG. 2A, 6A-6B): sufficient to compensate for glutamine withdrawal | Nanog-GFP expression after pulsed treatment (Nanog-GFP ESCs): transiently increase Nanog-GFP expression | benefit of the glutamine withdrawal pulse on self-renewal (colony formation) (ESCs [2]; 4 mM DM-αKG added during 24 h glutamine withdrawal, FIG. 3H): abrogated the benefit of the pulse | self-renewal capacity of the ESC population after pulsed treatment (colony formation) (ESCs [2]; 24 h pulse, 24 h recovery before plating, FIG. 3G, 7G): no durable effect
